PubChem BioAssay AID328 (DTP/NCI, 2004)
Where “and” joins values, the source holds several entries; their conditions need not be identical. Equal values may be shown once. Toxic doses and inconclusive results are not listed. Rule for the calls: active = survival T/C of 150% or more; inactive = T/C below 125% in these data.

Tested on: BDF1 mice, P388 leukemia ip, median survival T/C
Assay: NCI In Vivo Anticancer Drug Screen. Data for tumor model P388 Leukemia (intraperitoneal) in B6D2F1 (BDF1) mice
Conditions: endpoint: median survival time, higher = longer survival
In short: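 Transplantable tumour in mice; compound vs vehicle dosing; survival scored; ratio of treated to control reported.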

[1] = dose: 100.0 mg/kg/injection, schedule: Q01DX009 (ip), vehicle: Klucel (hydroxypropylcellulose) (HPC)
[2] = dose: 200.0 mg/kg/injection, schedule: Q01DX009 (ip), vehicle: Klucel (hydroxypropylcellulose) (HPC)
[3] = dose: 400.0 mg/kg/injection, schedule: Q01DX009 (ip), vehicle: Klucel (hydroxypropylcellulose) (HPC)
[4] = dose: 25.0 mg/kg/injection, schedule: Q01DX009 (ip), vehicle: saline with Tween-80
[5] = dose: 50.0 mg/kg/injection, schedule: Q01DX009 (ip), vehicle: saline with Tween-80
[6] = dose: 25.0 mg/kg/injection, schedule: Q01DX009 (ip), vehicle: saline
[7] = dose: 100.0 mg/kg/injection, schedule: Q04DX003 (ip), vehicle: saline
[8] = dose: 200.0 mg/kg/injection, schedule: Q04DX003 (ip), vehicle: saline
[9] = dose: 100.0 mg/kg/injection, schedule: Q01DX009 (ip), vehicle: saline with Tween-80
[10] = dose: 200.0 mg/kg/injection, schedule: Q01DX009 (ip), vehicle: saline with Tween-80
[11] = dose: 25.0 mg/kg/injection, schedule: Q04DX003 (ip), vehicle: saline with Tween-80
[12] = dose: 50.0 mg/kg/injection, schedule: Q04DX003 (ip), vehicle: saline with Tween-80
[13] = dose: 100.0 mg/kg/injection, schedule: Q04DX003 (ip), vehicle: saline with Tween-80
[14] = dose: 200.0 mg/kg/injection, schedule: Q04DX003 (ip), vehicle: saline with Tween-80
[15] = dose: 50.0 mg/kg/injection, schedule: Q01DX009 (ip), vehicle: saline
[16] = dose: 400.0 mg/kg/injection, schedule: Q04DX003 (ip), vehicle: saline with Tween-80
[17] = dose: 400.0 mg/kg/injection, schedule: Q01DX009 (ip), vehicle: saline with Tween-80

Measured: T/C

C[C@@H]1C[C@@]2(C)C(=CC1=O)CC[C@@H]1C2=CC[C@@]2(C)[C@H]1CC[C@]2(C)O
inactive: [1] 100 % of control and 110 % of control | dose: 100.0 mg/kg/injection, schedule: Q04DX003 (ip), vehicle: alcohol 100 % of control | [2] 90 % of control and 100 % of control | dose: 200.0 mg/kg/injection, schedule: Q04DX003 (ip), vehicle: alcohol 105 % of control | [3] 90 % of control and 113 % of control | dose: 400.0 mg/kg/injection, schedule: Q04DX003 (ip), vehicle: alcohol 95 % of control

C[P+]1(C)CCc2c1ccc1ccccc21
inactive: dose: 12.5 mg/kg/injection, schedule: Q01DX009 (ip), vehicle: saline with Tween-80 104 % of control | [4] 100 % of control | [5] 104 % of control

CN(C)CCCNc1ccc(O)c2c1C(=O)c1ccccc1C2=O
inactive: dose: 6.25 mg/kg/injection, schedule: Q01DX009 (ip), vehicle: saline 91 % of control | dose: 12.5 mg/kg/injection, schedule: Q01DX009 (ip), vehicle: saline 110 % of control and 114 % of control | [6] 103 % of control and 109 % of control and 112 % of control | [7] 96 % of control | [8] 112 % of control

O=C(O)c1cc(O)c(Br)c(O)c1
inactive: dose: 100.0 mg/kg/injection, schedule: Q01DX001 (ip), vehicle: saline with Tween-80 109 % of control | dose: 200.0 mg/kg/injection, schedule: Q01DX001 (ip), vehicle: saline with Tween-80 100 % of control | dose: 400.0 mg/kg/injection, schedule: Q01DX001 (ip), vehicle: saline with Tween-80 104 % of control

COc1cc2ccccc2c(-c2c(O)c(OC)cc3ccccc23)c1O
inactive: [5] 91 % of control | [9] 86 % of control | [10] 88 % of control

CC(=O)Nc1cc(C)cc(CO)c1C
inactive: [11] 86 % of control | [12] 96 % of control | [13] 93 % of control | [14] 88 % of control

O=C(Oc1ccc([N+](=O)[O-])cc1)c1ccc(CBr)cc1
inactive: [6] 95 % of control | [15] 100 % of control | [7] 90 % of control | [8] 86 % of control

Cc1ccc(-c2nc3ccccc3c(=O)n2/N=C/c2ccccc2)cc1
inactive: [5] 90 % of control | [9] 93 % of control

CCc1nnc2sc3c(Cl)c4nn5c(CC)nnc5sc4c(Cl)c3nn12
inactive: [5] 114 % of control | [9] 118 % of control | [10] 98 % of control

CCC[CH2][Sn]1([CH2]CCC)[O]C(=O)C[S]1
inactive: dose: 0.78 mg/kg/injection, schedule: Q04DX003 (ip), vehicle: saline with Tween-80 100 % of control | dose: 1.56 mg/kg/injection, schedule: Q04DX003 (ip), vehicle: saline with Tween-80 113 % of control | dose: 2.0 mg/kg/injection, schedule: Q04DX003 (ip), vehicle: saline with Tween-80 112 % of control | dose: 3.0 mg/kg/injection, schedule: Q04DX003 (ip), vehicle: saline with Tween-80 116 % of control

C=C=[CH][Sn]([c]1ccccc1)([c]1ccccc1)[c]1ccccc1
inactive: dose: 6.25 mg/kg/injection, schedule: Q01DX009 (ip), vehicle: Klucel (hydroxypropylcellulose) (HPC) 92 % of control and 108 % of control | dose: 12.5 mg/kg/injection, schedule: Q01DX009 (ip), vehicle: Klucel (hydroxypropylcellulose) (HPC) 96 % of control and 104 % of control | dose: 25.0 mg/kg/injection, schedule: Q01DX009 (ip), vehicle: Klucel (hydroxypropylcellulose) (HPC) 107 % of control and 112 % of control and 115 % of control

Cc1c(C)c2c(c(C)c1O)CCC(C)(CCCC(C)CCCC(C)CCCC(C)C)O2 (centres undefined)
inactive: dose: 30.0 IU/animal/injection, schedule: Q04DX003 (ip), vehicle: olive oil, sesame oil, peanut oil 100 % of control | dose: 85.0 IU/animal/injection, schedule: Q04DX003 (ip), vehicle: olive oil, sesame oil, peanut oil 100 % of control

O=[N+]([O-])C(CO)(CO)CO
inactive: [7] 95 % of control | [8] 100 % of control | dose: 400.0 mg/kg/injection, schedule: Q04DX003 (ip), vehicle: saline 100 % of control

CCCCCCOB(OCCCCCC)OCCCCCC
inactive: dose: 22.5 mg/kg/injection, schedule: Q01DX009 (ip), vehicle: saline with Tween-80 94 % of control | dose: 45.0 mg/kg/injection, schedule: Q01DX009 (ip), vehicle: saline with Tween-80 97 % of control | dose: 90.0 mg/kg/injection, schedule: Q01DX009 (ip), vehicle: saline with Tween-80 102 % of control

COc1cccc2c1C(=O)c1c(O)c3c(c(O)c1C2=O)C[C@@](O)(C(=O)CO)C[C@@H]3OC1CC(NC(C)=O)C(O)C(C)O1 (some centres undefined)
inactive: dose: 25.0 mg/kg/injection, schedule: Q04DX009 (ip), vehicle: other 119 % of control | dose: 100.0 mg/kg/injection, schedule: Q04DX009 (ip), vehicle: other 119 % of control | dose: 200.0 mg/kg/injection, schedule: Q04DX009 (ip), vehicle: other 119 % of control

CCCNC(=O)Nc1cc(C(F)(F)F)ccc1Cl
inactive: [13] 100 % of control | [14] 100 % of control | [16] 100 % of control

CC(=O)c1nc2c(N)nc(N)nc2nc1C
inactive: [13] 92 % of control | [14] 111 % of control | [16] 106 % of control

CC(C)(C)C1=CC(C(C)(C)C)CCC1=O (centres undefined)
inactive: [15] 86 % of control | dose: 75.0 mg/kg/injection, schedule: Q04DX003 (ip), vehicle: saline 110 % of control | dose: 100.0 mg/kg/injection, schedule: Q01DX009 (ip), vehicle: saline 109 % of control | dose: 150.0 mg/kg/injection, schedule: Q04DX003 (ip), vehicle: saline 110 % of control | dose: 200.0 mg/kg/injection, schedule: Q01DX009 (ip), vehicle: saline 118 % of control | dose: 300.0 mg/kg/injection, schedule: Q04DX003 (ip), vehicle: saline 120 % of control

CCCCNC(=S)Nc1sc(C)c(C)c1C(=O)OCC
inactive: [13] 106 % of control | [14] 99 % of control | [16] 99 % of control

CC(C)C(Br)C(=O)NCC(=O)NCC(=O)O (centres undefined)
inactive: [13] 104 % of control | [14] 109 % of control | [16] 100 % of control

NNc1ncnc2c1ccn2C1OC(CO)C(O)C1O (centres undefined)
active: [4] 150 % of control | dose: 37.5 mg/kg/injection, schedule: Q01DX009 (ip), vehicle: saline with Tween-80 155 % of control
inactive: [11] 104 % of control | [5] 100 % of control | [12] 108 % of control | [13] 108 % of control

CN=C(NC(C)C)c1ccc(NC(=O)c2ccc(C(=O)Nc3ccc(C(=NC)NC(C)C)cc3)cc2)cc1
inactive: dose: 16.0 mg/kg/injection, schedule: Q04DX003 (ip), vehicle: saline with Tween-80 118 % of control
active: dose: 42.2 mg/kg/injection, schedule: Q04DX003 (ip), vehicle: saline with Tween-80 150 % of control | dose: 64.0 mg/kg/injection, schedule: Q04DX003 (ip), vehicle: saline with Tween-80 150 % of control | dose: 96.0 mg/kg/injection, schedule: Q04DX003 (ip), vehicle: saline with Tween-80 150 % of control

O=C(O)c1c[nH]n2c(=S)ncnc12
inactive: [5] 93 % of control | [12] 104 % of control | [9] 104 % of control | [13] 91 % of control | [10] 100 % of control | [14] 87 % of control | [17] 93 % of control | [16] 95 % of control

CCCCOn1nnc2cc(Cl)ccc21
inactive: [5] 97 % of control | [9] 101 % of control | [10] 117 % of control

CN(C)c1ccc(-c2cc[n+](C)cc2)cc1
inactive: dose: 0.5 mg/kg/injection, schedule: Q01DX009 (ip), vehicle: saline 119 % of control | dose: 1.0 mg/kg/injection, schedule: Q01DX009 (ip), vehicle: saline 111 % of control | dose: 2.0 mg/kg/injection, schedule: Q01DX009 (ip), vehicle: saline 91 % of control | dose: 3.0 mg/kg/injection, schedule: Q01DX009 (ip), vehicle: saline 106 % of control | dose: 6.0 mg/kg/injection, schedule: Q01DX009 (ip), vehicle: saline 114 % of control

COC(=O)/C=C/c1ccc(Cl)cc1
inactive: [1] 95 % of control | [2] 95 % of control | [3] 91 % of control

CCCCOC(=O)C(N)Cc1ccc(OC)c(N(CCCl)CCCl)c1 (centres undefined)
active: dose: 3.0 mg/kg/injection, schedule: Q04DX003 (ip), vehicle: saline 250 % of control
inactive: dose: 6.0 mg/kg/injection, schedule: Q04DX003 (ip), vehicle: saline 108 % of control

COc1ccccc1C(=O)c1ccccc1Cc1cccc2ccccc12
inactive: [5] 92 % of control | [9] 92 % of control | [10] 92 % of control | [17] 97 % of control
